Assay results as given in PubChem BioAssay AID1963978 (Molecular Pharmacology Branch, DTP, NCI, 2024).
Values joined by “and” are separate entries in the source; they are usually repeats but may differ in a detail not shown here. Identical values can stand only once.

System: 616215-338-R-J1-PDC spheroids with HUVEC/MSC, viability
Assay: Anticancer human tumor 616215-338-R-J1-PDC patient-derived colon adenocarcinoma cell line growth inhibition [PI3K]
Conditions: for viability, T/C: stronger effect = lower value
Outline: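 Tumor cells grown as multi-cell spheroids with HUVEC endothelial cells and MSC fibroblast-like stroma were treated with targeted agents combined with inavolisib, alpelisib, duvelisib or copanlisib. Doses fell in half-log steps from near clinical Cmax, else from 10 microM. Viability was measured.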

[1] = curve of first compound, second compound 0.00316 µM
[2] = curve of first compound, second compound 0.01 µM
[3] = curve of first compound, second compound 0.0316 µM
[4] = curve of first compound, second compound 0.1 µM
[5] = curve of first compound, second compound 0.316 µM
[6] = curve of first compound, second compound 1 µM
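Note: spheroids exposed to agents for seven days before the viability read.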

With `CCN1CCN(Cc2ccc(Nc3ncc(F)c(-c4cc(F)c5nc(C)n(C(C)C)c5c4)n3)nc2)CC1` as the compound, how does the viability, T/C (compound 0.00316 µM) read?
The viability, T/C was 98.2% [middle of 4 runs].

And the viability, T/C (compound 0.01 µM)?
The viability, T/C was 92.2% [middle of 4 runs].

What about the viability, T/C (compound 0.0316 µM) of the same compound?
The viability, T/C was 97.4% [middle of 4 runs].

And the viability, T/C (compound 0.1 µM)?
The viability, T/C was 114% and 104% (2×) and 116%.

What about the IC50 (curve of compound) of the same compound?
Its IC50 is over 1000 nM.

`Cn1cnc2c(F)c(Nc3ccc(Br)cc3Cl)c(C(=O)NOCCO)cc21` + COc1c(OCCCN2CCOCC2)ccc2c3n(c(=NC(=O)c4cnc(N)nc4)nc12)CCN3 was tested. Which IC50 [1] did it give?
The IC50 was 2230 nM.

And the IC50 [2]?
Its IC50 is 1350 nM.

And the IC50 [3]?
Its IC50 is 810 nM.

And the IC50 [4]?
The IC50 was 413 nM.

And the IC50 [5]?
Its IC50 is under 9.49 nM.

And the IC50 [6]?
Its IC50 is under 9.49 nM.

And the viability, T/C (second compound 0.00316 µM, first compound 0.00949 µM)?
Its viability, T/C is 93.6%.

What about the viability, T/C (second compound 0.00316 µM, first compound 0.03 µM) of the same compound?
Its viability, T/C is 99.3%.

What about the viability, T/C (second compound 0.00316 µM, first compound 0.0949 µM) of the same compound?
Its viability, T/C is 91.1%.

And the viability, T/C (second compound 0.00316 µM, first compound 0.3 µM)?
Its viability, T/C is 83.3%.

And the viability, T/C (second compound 0.00316 µM, first compound 0.949 µM)?
The viability, T/C was 72.8%.

What about the viability, T/C (second compound 0.00316 µM, first compound 3 µM) of the same compound?
The viability, T/C was 41.9%.

What about the viability, T/C (second compound 0.01 µM, first compound 0.00949 µM) of the same compound?
The viability, T/C was 99.3%.

What about the viability, T/C (second compound 0.01 µM, first compound 0.03 µM) of the same compound?
The viability, T/C was 95%.

And the viability, T/C (second compound 0.01 µM, first compound 0.0949 µM)?
The viability, T/C was 85.4%.

And the viability, T/C (second compound 0.01 µM, first compound 0.3 µM)?
The viability, T/C was 86.5%.

What about the viability, T/C (second compound 0.01 µM, first compound 0.949 µM) of the same compound?
Its viability, T/C is 54.5%.

What about the viability, T/C (second compound 0.01 µM, first compound 3 µM) of the same compound?
Its viability, T/C is 38.1%.

What about the viability, T/C (second compound 0.0316 µM, first compound 0.00949 µM) of the same compound?
The viability, T/C was 99.3%.

And the viability, T/C (second compound 0.0316 µM, first compound 0.03 µM)?
The viability, T/C was 94.8%.

And the viability, T/C (second compound 0.0316 µM, first compound 0.0949 µM)?
The viability, T/C was 73.7%.

What about the viability, T/C (second compound 0.0316 µM, first compound 0.3 µM) of the same compound?
The viability, T/C was 76.3%.

And the viability, T/C (second compound 0.0316 µM, first compound 0.949 µM)?
The viability, T/C was 42.5%.

And the viability, T/C (second compound 0.0316 µM, first compound 3 µM)?
The viability, T/C was 24.7%.

And the viability, T/C (second compound 0.1 µM, first compound 0.00949 µM)?
The viability, T/C was 94%.

What about the viability, T/C (second compound 0.1 µM, first compound 0.03 µM) of the same compound?
The viability, T/C was 86.7%.

What about the viability, T/C (second compound 0.1 µM, first compound 0.0949 µM) of the same compound?
The viability, T/C was 76.1%.

And the viability, T/C (second compound 0.1 µM, first compound 0.3 µM)?
Its viability, T/C is 58.6%.

And the viability, T/C (second compound 0.1 µM, first compound 0.949 µM)?
Its viability, T/C is 30.9%.

And the viability, T/C (second compound 0.1 µM, first compound 3 µM)?
Its viability, T/C is 13.2%.

And the viability, T/C (second compound 0.316 µM, first compound 0.00949 µM)?
Its viability, T/C is 37.6%.

What about the viability, T/C (second compound 0.316 µM, first compound 0.03 µM) of the same compound?
The viability, T/C was 47.4%.

What about the viability, T/C (second compound 0.316 µM, first compound 0.0949 µM) of the same compound?
The viability, T/C was 36.9%.

And the viability, T/C (second compound 0.316 µM, first compound 0.3 µM)?
The viability, T/C was 24.9%.

And the viability, T/C (second compound 0.316 µM, first compound 0.949 µM)?
Its viability, T/C is 11.7%.

What about the viability, T/C (second compound 0.316 µM, first compound 3 µM) of the same compound?
The viability, T/C was 1.63%.

And the viability, T/C (second compound 1 µM, first compound 0.00949 µM)?
Its viability, T/C is 22.2%.

And the viability, T/C (second compound 1 µM, first compound 0.03 µM)?
The viability, T/C was 12.8%.

What about the viability, T/C (second compound 1 µM, first compound 0.0949 µM) of the same compound?
Its viability, T/C is 6.6%.

And the viability, T/C (second compound 1 µM, first compound 0.3 µM)?
Its viability, T/C is 2.1%.

What about the viability, T/C (second compound 1 µM, first compound 0.949 µM) of the same compound?
Its viability, T/C is 0.32%.

What about the viability, T/C (second compound 1 µM, first compound 3 µM) of the same compound?
The viability, T/C was 0.32%.

With `CC(=O)c1c(C)c2cnc(Nc3ccc(N4CCNCC4)cn3)nc2n(C2CCCC2)c1=O` + CC(Nc1ccc2c(c1)OCCn1cc(N3C(=O)OCC3C(F)F)nc1-2)C(N)=O as the compound, how does the IC50 [1] read?
The IC50 was over 100 nM.

And the IC50 [2]?
The IC50 was over 100 nM.

What about the IC50 [3] of the same compound?
Its IC50 is over 100 nM.

What about the IC50 [4] of the same compound?
Its IC50 is over 100 nM.

What about the IC50 [5] of the same compound?
The IC50 was over 100 nM.

What about the IC50 [6] of the same compound?
The IC50 was over 100 nM.

And the viability, T/C (second compound 0.00316 µM, first compound 0.000316 µM)?
The viability, T/C was 87.7%.

And the viability, T/C (second compound 0.00316 µM, first compound 0.001 µM)?
The viability, T/C was 104%.

And the viability, T/C (second compound 0.00316 µM, first compound 0.00316 µM)?
The viability, T/C was 93%.

And the viability, T/C (second compound 0.00316 µM, first compound 0.01 µM)?
The viability, T/C was 99.4%.

And the viability, T/C (second compound 0.00316 µM, first compound 0.0316 µM)?
Its viability, T/C is 94.6%.

And the viability, T/C (second compound 0.00316 µM, first compound 0.1 µM)?
The viability, T/C was 95.9%.

And the viability, T/C (second compound 0.01 µM, first compound 0.000316 µM)?
Its viability, T/C is 99.6%.

What about the viability, T/C (second compound 0.01 µM, first compound 0.001 µM) of the same compound?
The viability, T/C was 100%.

And the viability, T/C (second compound 0.01 µM, first compound 0.00316 µM)?
The viability, T/C was 107%.

And the viability, T/C (second compound 0.01 µM, first compound 0.01 µM)?
The viability, T/C was 90.2%.

And the viability, T/C (second compound 0.01 µM, first compound 0.0316 µM)?
The viability, T/C was 99.5%.

And the viability, T/C (second compound 0.01 µM, first compound 0.1 µM)?
The viability, T/C was 96.5%.

And the viability, T/C (second compound 0.0316 µM, first compound 0.000316 µM)?
Its viability, T/C is 93.2%.

What about the viability, T/C (second compound 0.0316 µM, first compound 0.001 µM) of the same compound?
Its viability, T/C is 102%.

What about the viability, T/C (second compound 0.0316 µM, first compound 0.00316 µM) of the same compound?
Its viability, T/C is 98.2%.

What about the viability, T/C (second compound 0.0316 µM, first compound 0.01 µM) of the same compound?
Its viability, T/C is 101%.

What about the viability, T/C (second compound 0.0316 µM, first compound 0.0316 µM) of the same compound?
The viability, T/C was 91.5%.

And the viability, T/C (second compound 0.0316 µM, first compound 0.1 µM)?
The viability, T/C was 107%.

What about the viability, T/C (second compound 0.1 µM, first compound 0.000316 µM) of the same compound?
The viability, T/C was 102%.

What about the viability, T/C (second compound 0.1 µM, first compound 0.001 µM) of the same compound?
Its viability, T/C is 99%.

And the viability, T/C (second compound 0.1 µM, first compound 0.00316 µM)?
The viability, T/C was 92.6%.

And the viability, T/C (second compound 0.1 µM, first compound 0.01 µM)?
Its viability, T/C is 112%.

And the viability, T/C (second compound 0.1 µM, first compound 0.0316 µM)?
The viability, T/C was 93.8%.

And the viability, T/C (second compound 0.1 µM, first compound 0.1 µM)?
The viability, T/C was 101%.

And the viability, T/C (second compound 0.316 µM, first compound 0.000316 µM)?
The viability, T/C was 106%.

What about the viability, T/C (second compound 0.316 µM, first compound 0.001 µM) of the same compound?
The viability, T/C was 112%.

What about the viability, T/C (second compound 0.316 µM, first compound 0.00316 µM) of the same compound?
The viability, T/C was 100%.

And the viability, T/C (second compound 0.316 µM, first compound 0.01 µM)?
The viability, T/C was 106%.

What about the viability, T/C (second compound 0.316 µM, first compound 0.0316 µM) of the same compound?
The viability, T/C was 98%.

And the viability, T/C (second compound 0.316 µM, first compound 0.1 µM)?
Its viability, T/C is 90.2%.

What about the viability, T/C (second compound 1 µM, first compound 0.000316 µM) of the same compound?
The viability, T/C was 105%.

And the viability, T/C (second compound 1 µM, first compound 0.001 µM)?
Its viability, T/C is 94.7%.

And the viability, T/C (second compound 1 µM, first compound 0.00316 µM)?
Its viability, T/C is 102%.

And the viability, T/C (second compound 1 µM, first compound 0.01 µM)?
Its viability, T/C is 105%.

What about the viability, T/C (second compound 1 µM, first compound 0.0316 µM) of the same compound?
Its viability, T/C is 95.1%.

What about the viability, T/C (second compound 1 µM, first compound 0.1 µM) of the same compound?
The viability, T/C was 81.7%.
